In patent US9073909B2, “[1,3]oxazines” (HOFFMANN-LA ROCHE INC., priority 2011, dated 2015):

Columns and labels:
[1] = target: T1, BACE1 (Homo sapiens, UniProt P56817); assay: Cellular Aβ-lowering assay (BACE1 cell act. Aβ40); format: cell-based; conditions: HEK293 cells stably expressing human APP695; Aβ40 in supernatant
T1 construct: from tissue; host or cells: human brain tissue slices
Procedure: a) Human HEK293 cells which are stably transfected with a vector expressing a cDNA of the human APP wt gene (APP695) were used to assess the potency of the compounds in a cellular assay. The cells were seeded in 96-well microtiter plates in cell culture medium (Iscove, plus 10% (v/v) fetal bovine serum, glutamine, penicillin/streptomycin) to about 80% confluence and the compounds were added at a 10× concentration in 1/10 volume of medium without FCS containing 8% DMSO (final concentration of DMSO was kept at 0.8% v/v). After 18-20 hrs incubation at 37° C. and 5% CO2 in a humidified incubator the culture supernatant was harvested for the determination of Aβ40 concentrations. […] After stopping the reaction with one volume 1 N H2SO4 the reaction was measured in an ELISA reader at 450 nm wavelength. The concentrations of Aβ in the culture supernatants were calculated from a standard curve obtained with known amounts of pure Aβ peptide. […]
In a Perkin-Elmer White Optiplate-384 (Cat#6007290), 2 μl culture supernatants were combined with 2 μl of a 10× AlphaLISA Anti-hAβAcceptor beads+Biotinylated Antibody Anti-Aβ 1-40 Mix (50 μg/mL/5 nM). […] Light Emission at 615 nm was then recorded using EnVision-Alpha Reader. Levels of Aβ40 in the culture supernatants were calculated as percentage of maximum signal (cells treated with 1% DMSO without inhibitor). […]

[2] = test system: BACE1; conditions: baboon, i.v. bolus, PET 0 to 120 minutes
Procedure: The PET experiments were carried out in male baboons (papio anubis). Animals were fasted for 12 hours prior to the PET study. Baboons were initially sedated intramuscularly with Ketamine hydrochloride with restraint dosages of 5-7 mg/kg to achieve a superficial level of anesthesia and then maintained on continuous Propofol intravenous infusion @ 0.3-0.4 mg/kg/h ([…] ® Injectable Emulsion). Circulatory volume was maintained by infusion of isotonic saline. A femoral arterial catheter was inserted for blood sampling. Physiological vital signs including heart rate, ECG, blood pressure and oxygen saturation were continuously monitored throughout the study. The animal was positioned in an ECAT HRRT® brain PET scanner (High Resolution Research Tomograph, CPS Innovations, Inc., Knoxville, Tenn.). The head of the animal was fitted with a thermoplastic mask that was attached to a head holder for reproducible fixation. A 6 min transmission scan with a 1 mCi Cs-137 point source was initially done for attenuation correction. […] The radioactivity of a VOI at time T was calculated as the weighted mean and expressed in mCi/ml. […]
SUV (%)=radioactivity (nCi/ml)/106/(dose (mCi)/body weight (kg)×103)×100, where numbers were used to make the unit for radioactivity equivalent between voxel radioactivity and radioactivity dose (106) and between body weight and voxel volume (103).

[3] = target: T2, BACE1 (Rattus norvegicus, UniProt P56819); assay: Ex vivo autoradiography in rats after i.v. tracer injection
T2 construct: from tissue; host or cells: rat brain (sagittal sections in vitro; brain of living rats for the ex vivo study)
T2 sequence (P56819 46-501): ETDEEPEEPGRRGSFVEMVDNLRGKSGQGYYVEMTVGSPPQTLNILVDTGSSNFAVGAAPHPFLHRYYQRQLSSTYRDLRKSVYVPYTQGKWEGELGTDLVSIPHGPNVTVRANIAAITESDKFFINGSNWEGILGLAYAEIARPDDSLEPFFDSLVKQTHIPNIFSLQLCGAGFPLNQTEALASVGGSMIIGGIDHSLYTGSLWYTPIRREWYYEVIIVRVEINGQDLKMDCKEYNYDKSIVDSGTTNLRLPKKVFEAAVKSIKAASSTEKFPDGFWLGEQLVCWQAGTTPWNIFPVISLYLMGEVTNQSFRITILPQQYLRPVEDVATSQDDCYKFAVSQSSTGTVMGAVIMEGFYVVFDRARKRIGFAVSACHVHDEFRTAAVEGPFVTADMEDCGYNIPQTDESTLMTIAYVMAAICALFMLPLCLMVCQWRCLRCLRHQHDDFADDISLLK
Procedure: The in vivo characteristics of [^3H]-5-but-2-ynyloxy-pyrazine-2-carboxylic acid [3-((R)-2-amino-5,5-difluoro-4-methyl-5,6-dihydro-4H-[1,3]oxazin-4-yl)-4-fluoro-phenyl]-amide for imaging BACE1 were analyzed by an ex vivo autoradiographical approach using young male Sprague-Dawley rats. Animals were intravenously injected with 1 mCi/kg [^3H]-5-but-2-ynyloxy-pyrazine-2-carboxylic acid [3-((R)-2-amino-5,5-difluoro-4-methyl-5,6-dihydro-4H-[1,3]oxazin-4-yl)-4-fluoro-phenyl]-amide corresponding to 37.7 nmol/kg and sacrificed at various time points post injection. To test the specificity of tracer binding in vivo, rats were pre-administered with 10 mg/kg of a reference BACE1 inhibitor ((S)-3-(3,6-dihydro-2H-pyran-4-yl)-7-(2-fluoropyridin-3-yl)-5′H-spiro[chromeno[2,3-c]pyridine-5,5′-oxazol]-2′-amine, CAS Nr 1215869-02-5; example 294 in WO2010030954) (p.o.) 3 h prior to tracer injection. Animals were sacrificed at various time points post injection (5, 15, 30, 60, 120 min p.i.), their brains were rapidly removed and frozen in dry ice powder. Ten μm-thick sagittal sections were cut in a Cryostat microtome and thaw-mounted on adhesion glass slides. Slide-mounted brain sections were dried under a flow of cold air for 3 h and exposed together with [^3H]-microscale to a Fuji Imaging plate for 5 days. The imaging plate was then scanned in a high resolution Fuji BAS reader. The total amount of radiotracer bound to the brain areas of interest (TB) was measured using the MCID image analysis program and expressed as fmol of bound radiotracer/mg of protein. The amount of [^3H]-5-but-2-ynyloxy-pyrazine-2-carboxylic acid [3-((R)-2-amino-5,5-difluoro-4-methyl-5,6-dihydro-4H-[1,3]oxazin-4-yl)-4-fluoro-phenyl]-amide specifically bound to BACE1 (SB) was calculated according to the formula SB=TB−NSB.

[4] = target: T2, BACE1; assay: In vitro autoradiography in rat brain sections; format: binding
Text: The distribution of [^3H]-5-but-2-ynyloxy-pyrazine-2-carboxylic acid [3-((R)-2-amino-5,5-difluoro-4-methyl-5,6-dihydro-4H-[1,3]oxazin-4-yl)-4-fluoro-phenyl]-amide binding sites as well as the binding specificity for BACE1 was investigated by in vitro autoradiography using male Sprague-Dawley rats. Animals were sacrificed, their brains were rapidly removed and frozen in dry ice powder. Ten μm-thick sagittal sections were cut in a Cryostat microtome and thaw-mounted on adhesion glass slides. Brain sections were first incubated for 10 min in Ringer buffer (NaCl 120 mM, KCl 5 mM, CaCl2 2 mM, MgCl2 1 mM, Tris-HCl 50 mM pH 7.4) at RT and then for 60 min in Ringer buffer containing either 1 nM or 10 nM [^3H]-5-but-2-ynyloxy-pyrazine-2-carboxylic acid [3-((R)-2-amino-5,5-difluoro-4-methyl-5,6-dihydro-4H-[1,3]oxazin-4-yl)-4-fluoro-phenyl]-amide. For the evaluation of non-specific-binding (NSB) of the radiotracer an additional series of sections was incubated with Ringer buffer containing the radiotracer and a reference BACE1 inhibitor ((S)-3-(3,6-dihydro-2H-pyran-4-yl)-7-(2-fluoropyridin-3-yl)-5′H-spiro[chromeno[2,3-c]pyridine-5,5′-oxazol]-2′-amine, CAS Nr 1215869-02-5; example 294 in WO2010030954) at 10 μM. At the end of the incubation, sections were rinsed 3×5 min in ice-cold Ringer buffer and then rapidly dipped once in distilled water at 4° C. Slide-mounted brain sections were dried under a flow of cold air for 3 h and exposed together with [^3H]-microscale to a Fuji Imaging plate for 5 days. The imaging plate was then scanned in a high resolution Fuji BAS reader. The total amount of radiotracer bound to the brain areas of interest (TB) was measured using the MCID image analysis program and expressed as fmol of bound radiotracer/mg of protein. The amount of [^3H]-5-but-2-ynyloxy-pyrazine-2-carboxylic acid [3-((R)-2-amino-5,5-difluoro-4-methyl-5,6-dihydro-4H-[1,3]oxazin-4-yl)-4-fluoro-phenyl]-amide specifically bound to BACE1 (SB) was calculated according to the formula SB=TB−NSB. […]

T1 sequence (P56817 46-501): as the sequence (P56819 46-501) above, with S82G, I162V, I165L, T180S, A182V, V340I, A393L, H443Q counted along it

**Q.** CC#CCOc1cnc(C(=O)Nc2ccc(F)c([C@@]3(C)N=C(N)OCC3(F)F)c2)cn1 [Example 1, 5-But-2-ynyloxy-pyrazine-2-carboxylic acid [3-((R)-2-amino-5,5-difluoro-4-methyl-5,6-dihydro-4H-[1,3]oxazin-4-yl)-4-fluoro-phenyl]-amide] was tested. Which IC50 [1] did it give?
**A.** 1.1 nM

**Q.** With C[C@]1(c2cc(NC(=O)c3cnc(OCC#C[11CH3])cn3)ccc2F)N=C(N)OCC1(F)F [Example 3, [^11C]-5-But-2-ynyloxy-pyrazine-2-carboxylic acid [3-((R)-2-amino-5,5-difluoro-4-methyl-5,6-dihydro-4H-[1,3]oxazin-4-yl)-4-fluoro-phenyl]-amide] as the molecule, how does the “brain uptake of radiotracer” value [2] read?
**A.** rapidly taken up in multiple brain areas

**Q.** For “[^3H]-5-But-2-ynyloxy-pyrazine-2-carboxylic acid [3-((R)-2-amino-5,5-difluoro-4-methyl-5,6-dihydro-4H-[1,3]oxazin-4-yl)-4-fluoro-phenyl]-amide [Example 2]”, which “in vivo binding after pre-treatment with BACE1 ligand A (specificity)” value ([3]; 10 mg/kg reference BACE1 inhibitor p.o. 3 h prior to tracer injection) is on record?
**A.** clearly reduced

**Q.** What about the “in vivo distribution pattern of binding (regions of highest accumulation)” value ([3]; 1 mCi/kg i.v., ex vivo autoradiography) of the same molecule?
**A.** highest accumulation in the dentate gyms and the CA3 region of the hippocampus, the cerebellum, pallidum and substantia nigra

**Q.** And the “wash-out kinetics of tracer binding” value ([3]; 5, 15, 30, 60, 120 min post injection)?
**A.** favorable wash-out kinetics

**Q.** What about the “reduction of tracer binding” value ([4]; 1 nM example 2 co-incubated with 10 μM specific BACE1 inhibitor A, rat brain sections) of the same molecule?
**A.** more than 80%

**Q.** What about the “brain regions with highest densities of binding sites” value ([4]; male Sprague-Dawley rat sagittal brain sections) of the same molecule?
**A.** dentate gyms and the CA3 region of the hippocampus, the cerebellum, pallidum and substantia nigra

**Q.** What about the “distribution of binding sites in the rat brain” value ([4]; male Sprague-Dawley rat sagittal brain sections, 1 nM or 10 nM tracer) of the same molecule?
**A.** widespread distribution
